Experimental data from US20230072421A1, “TARGETED RADIOPHARMACEUTICALS FOR THE DIAGNOSIS AND TREATMENT OF PROSTATE CANCER” (Bayer AS, priority 2019, published 2023).

Tests used:
[1] = test system: VCaP cells; test: Cell proliferation assay (CellTiter-Glo, 5-day exposure), VCaP; type: cell-based; settings: 4000 cells/well, Th-227 labelled at 375 kBq/nmol, mean of 1 to 6 experiments
In short: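 Prostate cancer cells (VCaP 4000/well; 22Rv1, C4-2, LNCaP 1000/well), Th-227-labelled PSMA ligands, 5-day exposure; viability by CTG at start and end.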

[2] = Biodistribution study in LNCaP tumor-bearing mice (Th227 counted in organs); type: in vivo, SCID mice; settings: 1500 kBq/kg
In short: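 SCID mice bearing testosterone pellets and subcutaneous LNCaP flank tumors (~50 mm^2) received a single intravenous dose of the radioactive compound. At set time points, n=3 animals were sacrificed, and organs were removed, weighed and counted for Th227 on a Germanium detector.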

In the case of `O=C([O-])CN1CCN(CC(=O)[O-])CCN(CC(=O)NCC2CCC(C(=O)NC(Cc3ccc4ccccc4c3)C(=O)NCCCCC(NC(=O)NC(CCC(=O)O)C(=O)O)C(=O)O)CC2)CCN(CC(=O)[O-])CC1.[227Th+4]` [Example 1-B-D-227Th, [^227Th]Thorium-(3S,10S,14R)-3-[(naphthalen-2-yl)methyl]-1,4,12-trioxo-1-{(1r,4S)-4-[(2-{4,7,10-tris[(carboxy-kappaO)methyl]-1,4,7,10-tetraazacyclododecan-1-yl-kappa^4N^1,N^4,N^7,N^10}acetamido)methyl]cyclohexyl}-2,5,11,13-tetraazahexadecane-10,14,16-tricarboxylate], the “Proliferation assay on cancer cell lines by TTCs Default Pivot #3 IC50 [kBq/mL] VCap 4000cells 375kBq/nmol (mean)” value [1] is reported as 4.52 kBq/mL, the Th-227 in Blood ([2]; 0.25 h) is reported as 4.97% ID Th-227/g organ and the Th-227 in Liver ([2]; 0.25 h) is reported as 1.25% ID Th-227/g organ. The Th-227 in Spleen ([2]; 0.25 h) was 1.91% ID Th-227/g organ, the Th-227 in Tumor ([2]; 0.25 h) was 2.08% ID Th-227/g organ and the Th-227 in bone ([2]; 0.25 h) was 1.70% ID Th-227/g organ. The Th-227 in brain ([2]; 0.25 h) was 0.18% ID Th-227/g organ, the Th-227 in kidney ([2]; 0.25 h) was 10.76% ID Th-227/g organ and the “Th-227 in large intestine” value ([2]; 0.25 h) was 0.75% ID Th-227/g organ. The Th-227 in lung ([2]; 0.25 h) was 3.67% ID Th-227/g organ, the Th-227 in muscle ([2]; 0.25 h) was 0.88% ID Th-227/g organ and the Th-227 in prostate ([2]; 0.25 h) was 6.26% ID Th-227/g organ. For the same molecule, the “Th-227 in salivary glands” value ([2]; 0.25 h) was 1.61% ID Th-227/g organ, the “Th-227 in small intestine” value ([2]; 0.25 h) was 1.21% ID Th-227/g organ and the Th-227 in Blood ([2]; 1 hr) was 1.04% ID Th-227/g organ. It also gave a Th-227 in Liver ([2]; 1 hr) of 0.59% ID Th-227/g organ, a Th-227 in Spleen ([2]; 1 hr) of 1.09% ID Th-227/g organ and a Th-227 in Tumor ([2]; 1 hr) of 1.16% ID Th-227/g organ. For the same molecule, the Th-227 in bone ([2]; 1 hr) was 0.99% ID Th-227/g organ, the Th-227 in kidney ([2]; 1 hr) was 4.11% ID Th-227/g organ and the “Th-227 in large intestine” value ([2]; 1 hr) was 0.18% ID Th-227/g organ. The Th-227 in lung ([2]; 1 hr) was 0.98% ID Th-227/g organ, the Th-227 in muscle ([2]; 1 hr) was 0.24% ID Th-227/g organ and the Th-227 in prostate ([2]; 1 hr) was 2.87% ID Th-227/g organ. For the same molecule, the “Th-227 in salivary glands” value ([2]; 1 hr) was 0.52% ID Th-227/g organ, the “Th-227 in small intestine” value ([2]; 1 hr) was 0.26% ID Th-227/g organ and the Th-227 in Blood ([2]; 4 hr) was 0.20% ID Th-227/g organ. The Th-227 in Liver ([2]; 4 hr) was 0.43% ID Th-227/g organ, the Th-227 in Spleen ([2]; 4 hr) was 0.34% ID Th-227/g organ and the Th-227 in Tumor ([2]; 4 hr) was 1.59% ID Th-227/g organ. It also gave a Th-227 in bone ([2]; 4 hr) of 1.68% ID Th-227/g organ, a Th-227 in brain ([2]; 4 hr) of 0.01% ID Th-227/g organ and a Th-227 in kidney ([2]; 4 hr) of 2.97% ID Th-227/g organ. For the same molecule, the “Th-227 in large intestine” value ([2]; 4 hr) was 0.17% ID Th-227/g organ, the Th-227 in lung ([2]; 4 hr) was 0.43% ID Th-227/g organ and the Th-227 in muscle ([2]; 4 hr) was 0.05% ID Th-227/g organ. The “Th-227 in salivary glands” value ([2]; 4 hr) was 0.30% ID Th-227/g organ, the “Th-227 in small intestine” value ([2]; 4 hr) was 0.17% ID Th-227/g organ and the Th-227 in Liver ([2]; 24 h) was 0.31% ID Th-227/g organ. The Th-227 in Spleen ([2]; 24 h) was 0.23% ID Th-227/g organ, the Th-227 in Tumor ([2]; 24 h) was 0.95% ID Th-227/g organ and the Th-227 in bone ([2]; 24 h) was 1.29% ID Th-227/g organ. For the same molecule, the Th-227 in kidney ([2]; 24 h) was 0.83% ID Th-227/g organ, the “Th-227 in large intestine” value ([2]; 24 h) was 0.07% ID Th-227/g organ and the Th-227 in lung ([2]; 24 h) was 0.16% ID Th-227/g organ. For the same molecule, the Th-227 in muscle ([2]; 24 h) was 0.00% ID Th-227/g organ, the “Th-227 in salivary glands” value ([2]; 24 h) was 0.09% ID Th-227/g organ and the “Th-227 in small intestine” value ([2]; 24 h) was 0.08% ID Th-227/g organ. For the same molecule, the Th-227 in Liver ([2]; 96 h) was 0.31% ID Th-227/g organ, the Th-227 in Spleen ([2]; 96 h) was 0.29% ID Th-227/g organ and the Th-227 in Tumor ([2]; 96 h) was 1.05% ID Th-227/g organ. For the same molecule, the Th-227 in bone ([2]; 96 h) was 2.88% ID Th-227/g organ, the Th-227 in kidney ([2]; 96 h) was 0.37% ID Th-227/g organ and the Th-227 in lung ([2]; 96 h) was 0.14% ID Th-227/g organ. For the same molecule, the Th-227 in muscle ([2]; 96 h) was 0.00% ID Th-227/g organ, the “Th-227 in salivary glands” value ([2]; 96 h) was 0.13% ID Th-227/g organ and the “Th-227 in small intestine” value ([2]; 96 h) was 0.06% ID Th-227/g organ.
